Experimental data: publication PMC6857626, “Potent bicyclic inhibitors of malarial cGMP-dependent protein kinase: approaches to combining improvements in cell potency, selectivity and structural novelty” (Bioorganic & Medicinal Chemistry Letters, 2019)
Where two headings read alike, the source gives them in different places.

Experiments:
PfPKG = PfPKG (Plasmodium falciparum, UniProt Q8I719); experiment: biochemical; settings: for LLE (pIC50 – mLogD): PfPKG pIC50 minus measured logD; for IC50: biochemical assay, read-out: PfPKG pIC50 (converted)
Plasmodium falciparum = experiment: blood stage hypoxanthine incorporation (HXI) cell assay; format: cell-based; settings: read-out: Pf HXI pEC50 (converted)
Excerpt: [21] Full details on biochemical assay and anti-malarial hypoxanthine incorporation (cell based) assay procedures can be found in reference 16.

[1] = Measured logD (shake flask); format: physicochemical; settings: for mLogD: octanol/PBS
[2] = mouse liver microsomal turnover; format: in vitro ADME; settings: % remaining after 30 min incubation with mouse liver microsomes
Experimental: Microsomal turnover data was obtained using mouse liver microsomes (MLM) obtained from BD Biosciences. The compounds are pre-incubated at 37 °C for 5 minutes with the microsomes and the reaction was initiated by adding an equal volume of NADPH generating solution, also obtained from BD Biosciences. The final compound concentration in the incubation is 1 μM, and the microsomal protein concentration is 0.2 mg/mL. A sample is taken at t=0 and quenched with 2x volume of ice-cold methanol containing an internal standard reference compound (carbamazepine). The reaction is agitated at 37 °C for 30 minutes, when a further sample was taken and quenched in an identical fashion. The samples were centrifuged at 10000 rpm for 10 minutes and the supernatant taken for analysis in triplicate by LC-MS/MS (Agilent Technologies G6410 series, triple quadrupole with MM-ESI ion source) using optimised multiple reaction monitoring (MRM) scans and a standard column gradient on an Acquity UPLC BEH C8 1.7μm column, running acetonitrile and water with 0.05% acetic acid as the mobile phase. The % turnover is obtained by calculating the percentage difference of the peak areas, normalised to the internal standard, at t=0 and t=30. Verapamil is used as the standard compound for this assay.

Kinetic solubility = format: physicochemical
Experimental: The kinetic solubility was measured by diluting a small amount of 10 mM DMSO stock into PBS pH7.4 in a filtration plate at a target concentration of 200 μM giving a final solution composition of 98:2 PBS:DMSO. Each compound was run in triplicate on the same plate with two standard compounds, verapamil and ketoconazole, included per plate. The filtration plate was shaken at 500 rpm for 90 minutes and then filtered under vacuum. The filtrate was sampled and diluted with a DMSO:PBS mixture in a flat bottomed UV plate to give a solution with a composition of PBS:DMSO 80:20. A dilution series for each compound was then created in flat bottomed UV plates in PBS:DMSO 80:20 with concentrations 200 μM, 100 μM, 50 μM, 25 μM, 12.5 μM & […]. The UV absorbance for these solutions was read across 230-400 nm at 1 nm intervals using a TECAN Safire II plate reader and a suitable UV wavelength chosen around the UV maximum of each compound.

[3] = tested on: HepG2 human liver-derived cells; experiment: in vitro cytotoxicity assay in HepG2 cells; format: cell-based; settings: for EC50: Homo sapiens, read-out: HepG2 pEC50 (converted)
PKG1α(h) = biological target: T1, PKG1α(h) (Homo sapiens, UniProt Q13976); experiment: Millipore Kinase Profiler assay, PKG1α(h); format: biochemical
T1 construct: purchased Millipore (Kinase Profiler service, tested externally)
T1 sequence (Q13976 1-671): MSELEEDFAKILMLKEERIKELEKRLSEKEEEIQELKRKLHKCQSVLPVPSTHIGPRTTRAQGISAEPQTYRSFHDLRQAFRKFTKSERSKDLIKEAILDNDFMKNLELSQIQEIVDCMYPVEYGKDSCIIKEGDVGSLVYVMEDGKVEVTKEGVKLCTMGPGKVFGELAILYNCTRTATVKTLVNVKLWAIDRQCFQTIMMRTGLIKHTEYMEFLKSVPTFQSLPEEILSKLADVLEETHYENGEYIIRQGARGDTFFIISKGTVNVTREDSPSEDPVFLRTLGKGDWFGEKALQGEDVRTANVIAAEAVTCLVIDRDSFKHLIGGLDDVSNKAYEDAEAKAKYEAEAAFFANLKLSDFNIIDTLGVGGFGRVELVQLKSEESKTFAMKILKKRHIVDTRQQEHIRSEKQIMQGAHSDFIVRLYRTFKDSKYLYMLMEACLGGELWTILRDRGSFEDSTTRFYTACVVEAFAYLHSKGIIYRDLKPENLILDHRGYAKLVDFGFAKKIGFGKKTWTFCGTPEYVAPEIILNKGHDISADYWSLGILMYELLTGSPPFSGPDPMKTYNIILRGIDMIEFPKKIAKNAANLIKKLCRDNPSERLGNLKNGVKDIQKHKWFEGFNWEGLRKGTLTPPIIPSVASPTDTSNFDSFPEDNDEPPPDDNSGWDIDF

PKG1β(h) = biological target: T2, PKG1β(h) (Homo sapiens, UniProt Q13976); experiment: Millipore Kinase Profiler assay, PKG1β(h); format: biochemical
T2 construct: purchased Millipore (Kinase Profiler service, tested externally)
T2 sequence (Q13976 1-686 isoform Q13976-2): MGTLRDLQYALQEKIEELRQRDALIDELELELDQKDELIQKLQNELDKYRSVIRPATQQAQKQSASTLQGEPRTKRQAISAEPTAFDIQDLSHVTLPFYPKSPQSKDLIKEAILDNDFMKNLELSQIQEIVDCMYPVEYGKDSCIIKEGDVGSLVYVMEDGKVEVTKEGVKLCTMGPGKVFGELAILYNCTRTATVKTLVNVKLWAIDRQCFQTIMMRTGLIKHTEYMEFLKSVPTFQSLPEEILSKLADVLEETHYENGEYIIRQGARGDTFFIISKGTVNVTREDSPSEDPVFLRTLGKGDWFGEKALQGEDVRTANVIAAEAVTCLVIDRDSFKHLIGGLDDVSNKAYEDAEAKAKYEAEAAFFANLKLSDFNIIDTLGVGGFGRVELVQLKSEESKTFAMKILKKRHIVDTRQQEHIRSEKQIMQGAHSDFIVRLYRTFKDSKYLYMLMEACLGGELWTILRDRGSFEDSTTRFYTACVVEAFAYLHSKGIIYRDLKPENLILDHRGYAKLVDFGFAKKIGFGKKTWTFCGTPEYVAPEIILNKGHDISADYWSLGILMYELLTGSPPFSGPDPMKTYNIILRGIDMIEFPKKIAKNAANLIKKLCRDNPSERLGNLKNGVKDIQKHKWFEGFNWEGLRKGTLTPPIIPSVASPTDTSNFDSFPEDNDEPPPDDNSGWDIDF

human kinase panel = experiment: Kinase selectivity profiling against a human kinase panel; format: biochemical; settings: single 1 µM concentration
Experimental: [29] Kinase selectivity profiling was carried out at the MRC Protein Phosphorylation Unit at the University of Dundee, U.K. at a single concentration of 1 µM for all three compounds.

[4] = blood stage hypoxanthine incorporation cell assay
[5] = up to a top assay concentration of 1 µM

Sequence of PfPKG (Q8I719 whole entry): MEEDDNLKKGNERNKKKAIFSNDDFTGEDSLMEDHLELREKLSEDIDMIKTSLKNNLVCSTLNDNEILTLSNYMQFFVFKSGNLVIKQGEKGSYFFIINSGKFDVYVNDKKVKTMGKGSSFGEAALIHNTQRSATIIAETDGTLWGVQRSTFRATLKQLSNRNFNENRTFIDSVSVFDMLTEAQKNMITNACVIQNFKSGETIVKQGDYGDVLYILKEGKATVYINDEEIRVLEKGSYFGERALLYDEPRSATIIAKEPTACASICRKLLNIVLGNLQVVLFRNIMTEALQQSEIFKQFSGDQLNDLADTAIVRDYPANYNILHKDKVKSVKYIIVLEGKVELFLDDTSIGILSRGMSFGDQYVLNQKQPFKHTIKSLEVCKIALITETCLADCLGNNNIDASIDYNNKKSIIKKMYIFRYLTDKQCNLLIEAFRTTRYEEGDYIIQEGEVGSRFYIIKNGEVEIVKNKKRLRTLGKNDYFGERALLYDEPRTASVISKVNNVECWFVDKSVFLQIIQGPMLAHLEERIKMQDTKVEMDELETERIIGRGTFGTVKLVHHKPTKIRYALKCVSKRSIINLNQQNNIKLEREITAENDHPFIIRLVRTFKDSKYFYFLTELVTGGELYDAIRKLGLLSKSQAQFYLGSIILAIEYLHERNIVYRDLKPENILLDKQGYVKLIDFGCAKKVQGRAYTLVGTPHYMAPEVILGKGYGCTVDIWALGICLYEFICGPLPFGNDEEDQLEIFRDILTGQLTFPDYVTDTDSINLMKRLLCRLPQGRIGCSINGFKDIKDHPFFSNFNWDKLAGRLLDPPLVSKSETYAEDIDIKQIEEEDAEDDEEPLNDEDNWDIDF

SMILES	LLE (pIC50 – mLogD) (PfPKG)	IC50 (PfPKG) [nM]	EC50 (Plasmodium falciparum; [4]) [nM]	mLogD [1]	MLM % rem [2] [%]	other results
CN1CCC(Nc2ccn3c(-c4ccnc(N)n4)c(-c4ccc(F)cc4)nc3c2)CC1 [Compound 24]	6.2	3.63	347	2.2	88	–
CN(C)Cc1ccn2c(-c3ccnc(N)n3)c(-c3ccc(F)cc3)nc2c1 [Compound 2]	–	–	–	–	–	EC50 (Plasmodium falciparum): 363 nM; Kin sol (Kinetic solubility; kinetic solubility, PBS pH7.4): 200 µM; EC50 ([3]; HepG2, 48 h): > 20000 nM; pIC50 (PKG1α(h); PKG1α(h)): < 6; activity against human orthologue of PKG (PKG1α(h); [5]): no activity; pIC50 (PKG1β(h); PKG1β(h)): < 6; activity against human orthologue of PKG (PKG1β(h); [5]): no activity
CN1CCC(Nc2ccn3c(-c4ccnc(N)n4)c(-c4ccc(F)cc4)nc3c2)C1 (stereo not drawn) [Compound 20]	6.0	8.51	851	2.1	–	–
CN(C)CCc1ccn2c(-c3ccnc(N)n3)c(-c3ccc(F)cc3)nc2c1 [Compound 29]	5.8	20.4	1000	1.9	65	–
CN(C)Cc1ccn2c(-c3ccnc(N)n3)c(C3CC3)nc2c1 [Compound 9]	5.8	35.5	–	1.7	–	–
CN(C)Cc1cccn2c(-c3ccnc(N)n3)c(-c3ccc(F)cc3)nc12 [Compound 15]	5.9	29.5	–	–	–	logD at 12 h ([1]; octanol/phosphate buffered saline (PBS), read-out: mLogD): 1.6
CN(C)CCNc1ccn2c(-c3ccnc(N)n3)c(-c3ccc(F)cc3)nc2c1 [Compound 26]	6.5	2.57	–	2.1	80	–
CN(C)Cc1ccc2nc(-c3ccc(F)cc3)c(-c3ccnc(N)n3)n2c1 [Compound 16]	5.0	51.3	–	2.3	–	–
CC(C)Nc1nccc(-c2c(C3CC3)nc3cc(CN(C)C)ccn23)n1 [Compound 10]	4.4	43.7	–	3.0	–	–
Cc1nc2cc(CN(C)C)ccn2c1-c1ccnc(N)n1 [Compound 7]	–	57.5	–	–	–	–
CN1CCN(c2ccc3nc(-c4ccc(F)cc4)c(-c4ccnc(N)n4)n3c2)CC1 [Compound 23]	5.8	2.63	871	2.8	–	in vitro cytotoxicity (in words) [3]: significant activity
CN(C)CCCNc1ccc2nc(-c3ccc(F)cc3)c(-c3ccnc(N)n3)n2c1 [Compound 21]	5.7	12.6	–	2.2	–	–
CN1CCN(c2ccn3c(-c4ccnc(N)n4)c(-c4ccc(F)cc4)nc3c2)CC1 [Compound 22]	5.4	3.31	263	3.1	–	in vitro cytotoxicity (in words) [3]: did not
CN(C)CCOc1ccn2c(-c3ccnc(N)n3)c(-c3ccc(F)cc3)nc2c1 [Compound 25]	5.9	7.41	813	2.2	54	–
CN(C)Cc1ccn2c(-c3ccnc(Nc4ccc(N5CCN(C)CC5)cc4)n3)c(C3CC3)nc2c1 [Compound 12]	6.0	7.24	112	2.1	–	–
CN(C)Cc1ccn2c(-c3ccnc(N)n3)c(C(F)(F)F)nc2c1 [Compound 8]	–	148	–	–	–	–
CN(C)Cc1ccn2c(-c3ccnc(Nc4ccc(N5CCNCC5)cc4)n3)c(C3CC3)nc2c1 [Compound 13]	6.8	4.47	200	1.5	53	Kin sol (Kinetic solubility; 90 min, pH 7.4): 189 µM; in vitro cytotoxicity (in words) [3]: non-cytotoxic; EC50 ([3]; HepG2, concentration at which half of cells remained viable at 48 h): > 10000 nM; selectivity against human kinase panel (in words) (human kinase panel): decreased level of selectivity
CN1CCN(c2ccc(Nc3nccc(-c4c(-c5ccc(F)cc5)nc5ccccn45)n3)cc2)CC1 [Compound 1]	–	–	–	–	65	EC50 (Plasmodium falciparum): 115 nM
CN(C)Cc1ccn2c(-c3ccnc(Nc4ccccn4)n3)c(C3CC3)nc2c1 [Compound 11]	–	8.71	1740	2.5	–	–
